Assay results from ChEMBL document CHEMBL1201862, “PubChem BioAssay data set” (2004).
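1) Cells in 96-well plates. 2) Compound, 48 h, 5 concentrations. 3) Linear interpolation between surrounding doses. 4) Unreached endpoint = highest concentration. GI50: concentration for 50% inhibition of growth.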 Calls of active or inactive are those of the source. Cut-off read from the data, not from the text of the source: active = GI50 up to about 1.1 µM and inactive = higher.

Tests used:
Experiment in all cases: growth of human tumour cells (NCI), 48 h
CCRF-CEM = test system: CCRF-CEM
EKVX = test system: EKVX
HCT-116 = test system: HCT-116
HOP-62 = test system: HOP-62
HOP-92 = test system: HOP-92
HT-29 = test system: HT-29
Malme-3M = test system: Malme-3M
NCI-H226 = test system: NCI-H226
NCI-H23 = test system: NCI-H23
NCI-H460 = test system: NCI-H460
OVCAR-5 = test system: OVCAR-5
OVCAR-8 = test system: OVCAR-8
SF-295 = test system: SF-295
SK-MEL-28 = test system: SK-MEL-28
SNB-19 = test system: SNB-19
SR = test system: SR
UACC-62 = test system: UACC-62
OVCAR-4 = test system: OVCAR-4

Measured: GI50

O/N=C\c1c(O)ccc2ccccc12
inactive: CCRF-CEM 47.2 µM | EKVX 33 µM | HCT-116 38.9 µM | HOP-62 70.1 µM | HOP-92 73.8 µM | HT-29 54.5 µM | Malme-3M 12.6 µM | NCI-H226 33.3 µM | NCI-H23 83.6 µM | NCI-H460 44.7 µM | OVCAR-5 > 100 µM | OVCAR-8 9.12 µM | SF-295 41.7 µM | SK-MEL-28 47.2 µM | SNB-19 > 100 µM | SR 21.2 µM | UACC-62 41 µM

NC(=O)NC(=O)C1CCC(=O)N1S(=O)(=O)c1ccc(Cl)cc1 (stereo not drawn)
inactive: CCRF-CEM 77.4 µM | EKVX > 100 µM | HCT-116 > 100 µM | HOP-62 > 100 µM | HOP-92 > 100 µM | HT-29 > 100 µM | Malme-3M > 100 µM | NCI-H226 > 100 µM | NCI-H23 > 100 µM | NCI-H460 > 100 µM | OVCAR-4 > 100 µM | OVCAR-8 > 100 µM | SF-295 > 100 µM | SK-MEL-28 > 100 µM | SNB-19 > 100 µM | SR > 100 µM | UACC-62 > 100 µM

COc1ccc(C2NCCc3c2[nH]c2ccccc32)cc1 (stereo not drawn)
inactive: CCRF-CEM 77.6 µM | EKVX > 100 µM | HCT-116 51.5 µM | HOP-62 21.2 µM | HOP-92 > 100 µM | HT-29 > 100 µM | Malme-3M 27 µM | NCI-H226 > 100 µM | NCI-H23 > 100 µM | NCI-H460 88.9 µM | OVCAR-5 > 100 µM | OVCAR-8 > 100 µM | SF-295 > 100 µM | SK-MEL-28 5.22 µM | SNB-19 > 100 µM | SR 28.2 µM | UACC-62 > 100 µM

CCN(CC)CCOC(=O)c1ccc(N)cc1.CCOC(=O)Nc1ccc(S(=O)(=O)OC)cc1.CCOC(=O)Nc1ccc(S(=O)(=O)OC)cc1.Nc1ccc(C(=O)O)c(O)c1
inactive: CCRF-CEM > 100 µM | EKVX > 100 µM | HCT-116 > 100 µM | HOP-62 > 100 µM | HOP-92 > 100 µM | HT-29 > 100 µM | Malme-3M > 100 µM | NCI-H226 > 100 µM | NCI-H23 > 100 µM | NCI-H460 > 100 µM | OVCAR-4 > 100 µM | OVCAR-5 > 100 µM | OVCAR-8 > 100 µM | SF-295 > 100 µM | SK-MEL-28 > 100 µM | SNB-19 > 100 µM | UACC-62 > 100 µM
